Patent publication US8986667B2, “Cosmetic composition with skin tightening effect” (LVMH Recherche, priority 2001, dated 2015)

System: human skin
Experiment: Kinetics of penetration of caffeine through thawed human skin mounted on Franz cells
Format: in vitro ADME
Details: receptor liquid
Excerpt: This study is made, in vitro, on human skin, which is kept beforehand by freezing, with the aim of evaluating the influence of the mixture according to the invention on the penetration and the distribution of caffeine within the skin beds. The occlusive properties of a gel according to the invention lead the research of an eventual patch effect. This study is made in comparison with a Carbopol gel.
The principle of the study is based on the evaluation of the diffusion of an active principle through the thawed human skin which is mounted on Franz cells.
These cells are constituted of two glass elements which delimit an upper partition and a lower partition, and they have an exposed surface area of […]. The skin is placed between these two elements, stratum corneum to the top. The active principle deposited on the skin crosses it and is collected in the lower partition, dissolved in a solution which is known as the receptor solution and which is constituted of a phosphate buffer+Na nitride (0.1%) mixture. […]
The kinetics of penetration, in μg/cm^2 per unit time, is expressed as a function of the interval of confidence, the IC95%, wherein the residual standard deviation is calculated by the ANOVA method over the whole of the tests. […]

SMILES: Cn1c(=O)c2c(ncn2C)n(C)c1=O [caffeine]
- maximum concentration of caffeine collected during the study: less than 23 μg/mL
